Source: publication PMC9081605, “A High-Throughput Toxicity Screen of 42 Per- and Polyfluoroalkyl Substances (PFAS) and Functional Assessment of Migration and Gene Expression in Human Placental Trophoblast Cells” (Frontiers in Toxicology, 2022)
Entries after “also recorded” stand apart in the source; their conditions may differ.

Test system: JEG-3 cells
Test: Gene expression, custom NanoString code set of 46 genes
Assay type: cell-based, human
Procedure: JEG-3 cells were seeded at a density of 80,000 cells per well in six well plates and allowed to adhere overnight (24 h). The following day, media was removed and replaced with exposure media, then returned to the incubator for 24 h. The test compounds included non-cytotoxic concentrations of PFOA (0, 1, and 100 µM) and GenX (0, 3, 300 µM). These test compounds were selected a priori due to their high public health relevance. Each 6 well plate contained the three concentrations for either PFOA or GenX, with each condition in technical duplicate. Plates containing these PFOA or GenX exposure conditions were replicated three times (N = 3). After 24 h, exposure media was aspirated and cells were washed in ice cold 1xPBS, which was then aspirated. Each well received 500 µl of TRIzol reagent (Thermo Fisher Scientific, MA, United States) and cells were harvested in the TRIzol using a cell scraper. Technical duplicate wells within a plate were combined to generate a single sample of ∼1,000 µl. RNA was isolated from the resulting cellular homogenate using RNeasy Mini Kits (Qiagen, Hilden, Germany). Isolated RNA quality was validated and concentration determined using a NanoDrop 2000 (Thermo Fisher Scientific, MA, United States). 100 ng of mRNA from each sample was then analyzed using a custom gene expression code set (NanoString, Seattle, WA, United States). The custom code set included 46 genes selected for their downstream involvement in placental development (e.g., WNT4), endocrine signaling (e.g., CYP19A1), fetal growth/nutrient sensing (e.g., IGF2), inflammation (e.g., IL6), oxidative stress (e.g., SOD1, GPX1), and xenobiotic transport/metabolism (e.g., ABCG2, MRP3).
Gene expression data were quantified using the nCounter Digital Analyzer (NanoString, Seattle, WA, United States) and raw and adjusted counts were generated with nSolver (v4.0) software (NanoString, Seattle, WA, United States). Data were adjusted utilizing the manufacturer’s positive and negative experimental control probes, as well as housekeeping genes (ACTA2, ACTB, B2M, LDHA, RNA18S5, and ROLYR2L). All samples passed nSolver’s initial QA/QC controls and replicates were very well correlated with R ^2 values greater than 0.99. Adjusted data were then imported into Partek v7.0 (St. Louis, MO, United States), log2 transformed and quantile normalized for further QA/QC and statistical analyses. Genes with mRNA counts below the detection threshold of 20 were removed due to suboptimal probe hybridization (N = 2 genes for GenX; GH2 and IGFBP5). Fold change values were analyzed by ANOVA with post hoc false discovery rate adjustment (FDR) of p < 0.1. Normalized gene expression values were visualized using pheatmap with Euclidean clustering of genes and concentration groups ([Kolde and Kolde, 2015]).

O=C(O)C(F)(F)C(F)(F)C(F)(F)C(F)(F)C(F)(F)C(F)(F)C(F)(F)F [Perfluorooctanoic acid]
11BHSD2 gene expression, fold change over untreated control (1 µM, 24 h): -1.06
17BHSD1 gene expression, fold change over untreated control (1 µM, 24 h): -1.02
ABCG2 gene expression, fold change over untreated control (1 µM, 24 h): -1.07
AHR gene expression, fold change over untreated control (1 µM, 24 h): -1.09
AHRR gene expression, fold change over untreated control (1 µM, 24 h): significantly altered
CAT gene expression, fold change over untreated control (1 µM, 24 h): 1.02
CGB5 gene expression, fold change over untreated control (1 µM, 24 h): 1.00
COX2 gene expression, fold change over untreated control (1 µM, 24 h): -1.11
CTNNB1 gene expression, fold change over untreated control (1 µM, 24 h): 1.00
CYP1A1 gene expression, fold change over untreated control (1 µM, 24 h): 1.05
CYP3A5 gene expression, fold change over untreated control (1 µM, 24 h): 1.28
CYP3A7 gene expression, fold change over untreated control (1 µM, 24 h): 1.15
CYP19A1 gene expression, fold change over untreated control (1 µM, 24 h): -1.05
EGFR gene expression, fold change over untreated control (1 µM, 24 h): 1.07
ENG gene expression, fold change over untreated control (1 µM, 24 h): 1.02
ESRRA gene expression, fold change over untreated control (1 µM, 24 h): 1.00
ESRRG gene expression, fold change over untreated control (1 µM, 24 h): -1.04
GH2 gene expression, fold change over untreated control (1 µM, 24 h): 1.02
GHR gene expression, fold change over untreated control (1 µM, 24 h): 1.00
GPER1 gene expression, fold change over untreated control (1 µM, 24 h): 1.02
GPX1 gene expression, fold change over untreated control (1 µM, 24 h): 1.00
HIF1A gene expression, fold change over untreated control (1 µM, 24 h): 1.00
IGF2 gene expression, fold change over untreated control (1 µM, 24 h): 1.00
IGFBP5 gene expression, fold change over untreated control (1 µM, 24 h): -1.13
IGFR1 gene expression, fold change over untreated control (1 µM, 24 h): 1.03
IGFR2 gene expression, fold change over untreated control (1 µM, 24 h): 1.05
IL6 gene expression, fold change over untreated control (1 µM, 24 h): -1.05
MRP1 gene expression, fold change over untreated control (1 µM, 24 h): -1.03
MRP2 gene expression, fold change over untreated control (1 µM, 24 h): 1.09
MRP3 gene expression, fold change over untreated control (1 µM, 24 h): -1.08
NFKB1 gene expression, fold change over untreated control (1 µM, 24 h): 1.00
NFKB2 gene expression, fold change over untreated control (1 µM, 24 h): 1.00
NR3C1 gene expression, fold change over untreated control (1 µM, 24 h): 1.09
PGF gene expression, fold change over untreated control (1 µM, 24 h): 1.00
PMM1 gene expression, fold change over untreated control (1 µM, 24 h): -1.03
ROLYR2L gene expression, fold change over untreated control (1 µM, 24 h): 1.00
SLC2A1 gene expression, fold change over untreated control (1 µM, 24 h): -1.02
SOD1 gene expression, fold change over untreated control (1 µM, 24 h): 1.00
TGFB1 gene expression, fold change over untreated control (1 µM, 24 h): 1.00
VEGFA gene expression, fold change over untreated control (1 µM, 24 h): 1.00
VEGFB gene expression, fold change over untreated control (1 µM, 24 h): -1.00
WNT4 gene expression, fold change over untreated control (1 µM, 24 h): 1.25
WNT6 gene expression, fold change over untreated control (1 µM, 24 h): -1.04
WNT7B gene expression, fold change over untreated control (1 µM, 24 h): 1.06
mTOR gene expression, fold change over untreated control (1 µM, 24 h): 1.00
11BHSD2 gene expression, fold change over untreated control (100 µM, 24 h): -1.03
AHR gene expression, fold change over untreated control (100 µM, 24 h): 1.08
AHRR gene expression, fold change over untreated control (100 µM, 24 h): 1.00
CAT gene expression, fold change over untreated control (100 µM, 24 h): -1.06
CGB5 gene expression, fold change over untreated control (100 µM, 24 h): -1.15
COX2 gene expression, fold change over untreated control (100 µM, 24 h): 1.03
CTNNB1 gene expression, fold change over untreated control (100 µM, 24 h): 1.00
CYP1A1 gene expression, fold change over untreated control (100 µM, 24 h): 1.18
CYP2E1 gene expression, fold change over untreated control (100 µM, 24 h): 1.00
CYP3A5 gene expression, fold change over untreated control (100 µM, 24 h): -1.18
CYP3A7 gene expression, fold change over untreated control (100 µM, 24 h): -1.22
CYP19A1 gene expression, fold change over untreated control (100 µM, 24 h): 1.00
EGFR gene expression, fold change over untreated control (100 µM, 24 h): -1.07
ENG gene expression, fold change over untreated control (100 µM, 24 h): -1.19
ESRRA gene expression, fold change over untreated control (100 µM, 24 h): 1.00
ESRRG gene expression, fold change over untreated control (100 µM, 24 h): -1.16
GH2 gene expression, fold change over untreated control (100 µM, 24 h): 1.12
GHR gene expression, fold change over untreated control (100 µM, 24 h): 1.15
GPER1 gene expression, fold change over untreated control (100 µM, 24 h): -1.05
GPX1 gene expression, fold change over untreated control (100 µM, 24 h): non-significant trend of decreased expression
HIF1A gene expression, fold change over untreated control (100 µM, 24 h): 1.00
IGF2 gene expression, fold change over untreated control (100 µM, 24 h): -1.00
IGFBP5 gene expression, fold change over untreated control (100 µM, 24 h): -1.02
IGFR1 gene expression, fold change over untreated control (100 µM, 24 h): 1.08
IGFR2 gene expression, fold change over untreated control (100 µM, 24 h): significantly altered
IL6 gene expression, fold change over untreated control (100 µM, 24 h): 1.10
MRP1 gene expression, fold change over untreated control (100 µM, 24 h): -1.06
MRP2 gene expression, fold change over untreated control (100 µM, 24 h): -1.03
MRP3 gene expression, fold change over untreated control (100 µM, 24 h): -1.12
NFKB1 gene expression, fold change over untreated control (100 µM, 24 h): 1.03
NFKB2 gene expression, fold change over untreated control (100 µM, 24 h): 1.00
NR3C1 gene expression, fold change over untreated control (100 µM, 24 h): 1.00
PGF gene expression, fold change over untreated control (100 µM, 24 h): -1.00
PMM1 gene expression, fold change over untreated control (100 µM, 24 h): 1.07
ROLYR2L gene expression, fold change over untreated control (100 µM, 24 h): 1.00
SLC2A1 gene expression, fold change over untreated control (100 µM, 24 h): -1.11
SOD1 gene expression, fold change over untreated control (100 µM, 24 h): 1.00
TGFB1 gene expression, fold change over untreated control (100 µM, 24 h): -1.18
VEGFA gene expression, fold change over untreated control (100 µM, 24 h): 1.08
VEGFB gene expression, fold change over untreated control (100 µM, 24 h): -1.04
WNT4 gene expression, fold change over untreated control (100 µM, 24 h): significantly altered
WNT6 gene expression, fold change over untreated control (100 µM, 24 h): -1.02
WNT7B gene expression, fold change over untreated control (100 µM, 24 h): 1.06
mTOR gene expression, fold change over untreated control (100 µM, 24 h): 1.00
17BHSD1 gene expression, fold change over untreated control (100 µM, 24 h, listed as PFOA): significantly altered; also recorded: significant increase
ABCG2 gene expression, fold change over untreated control (100 µM, 24 h, listed as PFOA): upregulation; also recorded: significantly altered
lowest concentration inducing significant dysregulated expression of placental genes (after 24 h of exposure): 1 µM
